Experimental findings from patent US20090142395A1, “DEFERASIROX PHARMACEUTICAL COMPOSITIONS” (priority 2007, published 2009) are described below.

The nature of the data set: Flow properties of co-milled blends, assessed visually. The data set is classed as physicochemical. The following applies: visual score between 1 and 6, where 6 is a free-flowing powder. The method, then: Flow properties were assessed visually, and given a score between 1 and 6, where 6 is a free-flowing powder.

In turn, `O=C(O)c1ccc(-n2nc(-c3ccccc3O)nc2-c2ccccc2O)cc1` [Deferasirox raw material, 4-[3,5-bis(2-hydroxyphenyl)-[1,2,4]triazol-1-yl]benzoic acid] returned a Flow score of 1.
